Bounds are passed on as bounds.

For the experiment, the target named is T1, USP28 (His-tagged USP28-FL-mammalian) (Homo sapiens, UniProt Q96RU2).
T1 construct: Expression of USP28 (1-1077)-TEV-6*His (pTT5 vector); made in house; host or cells: Expi293f cells (pTT5 vector)
T1 sequence (Q96RU2 1-1077): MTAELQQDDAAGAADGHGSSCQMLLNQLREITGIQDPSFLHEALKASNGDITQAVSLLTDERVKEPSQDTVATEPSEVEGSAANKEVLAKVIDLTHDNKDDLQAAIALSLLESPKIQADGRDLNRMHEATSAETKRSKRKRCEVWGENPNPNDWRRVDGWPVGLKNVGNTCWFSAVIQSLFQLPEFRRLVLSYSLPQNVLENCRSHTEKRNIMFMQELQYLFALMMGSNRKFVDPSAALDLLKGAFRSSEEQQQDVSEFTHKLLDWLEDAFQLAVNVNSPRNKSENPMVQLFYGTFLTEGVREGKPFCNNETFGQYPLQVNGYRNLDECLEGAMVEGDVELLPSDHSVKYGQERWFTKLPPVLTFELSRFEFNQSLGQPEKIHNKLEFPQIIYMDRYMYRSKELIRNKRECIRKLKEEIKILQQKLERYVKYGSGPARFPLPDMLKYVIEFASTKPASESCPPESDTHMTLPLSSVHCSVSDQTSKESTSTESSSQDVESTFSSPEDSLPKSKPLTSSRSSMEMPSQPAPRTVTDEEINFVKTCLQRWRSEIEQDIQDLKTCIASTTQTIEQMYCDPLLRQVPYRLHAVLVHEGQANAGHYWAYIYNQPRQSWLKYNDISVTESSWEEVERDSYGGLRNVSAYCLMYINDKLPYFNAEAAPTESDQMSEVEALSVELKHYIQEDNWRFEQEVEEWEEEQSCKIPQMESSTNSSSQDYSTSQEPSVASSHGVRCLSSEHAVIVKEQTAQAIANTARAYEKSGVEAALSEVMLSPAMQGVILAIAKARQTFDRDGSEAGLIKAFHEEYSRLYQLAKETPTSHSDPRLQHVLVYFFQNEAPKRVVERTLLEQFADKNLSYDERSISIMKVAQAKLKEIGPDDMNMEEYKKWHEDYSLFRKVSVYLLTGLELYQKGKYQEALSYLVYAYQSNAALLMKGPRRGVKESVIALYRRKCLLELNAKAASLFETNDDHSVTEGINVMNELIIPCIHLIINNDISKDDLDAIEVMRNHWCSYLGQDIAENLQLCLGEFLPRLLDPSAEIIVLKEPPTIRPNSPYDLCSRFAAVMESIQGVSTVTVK
Kind of experiment: Ubiquitin-Rhodamine 110 Assay for USP28 Activity, Example A-1(a). Type of experiment: biochemical. As to conditions: Ubiquitin-Rhodamine 110 assay, Example A-1(a); read-out: USP28 A-1(a) IC50 range. Summed up: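 Full-length His-tagged USP28 (1-1077, Expi293F-expressed; […]) was preincubated 30 min with compound (25 μM–1.3 nM, 10-point 3-fold) in 20 mM Tris-HCl pH 8.0, 3 mM BME, 0.03% BGG, 0.01% Triton X-100. Ub-Rh110 (25 nM) was then added for 45 min at room temperature, stopped with citric acid, and read by fluorescence (485/535 nm).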
With `Cc1ccc2c(N)c(C(=O)N[C@@H]3Cc4ccc(N5CCNCC5)nc4[C@@H](C)C3)sc2n1` (single isomer, unassigned) [Example 205], the concentration for half-maximal inhibition (IC50) (commonly the concentration needed to halve the response being measured) lay within 200 to 2000 nM.

In the case of `Cc1cc(C)c2c(N)c(C(=O)N[C@H]3COc4cc(N5CC[C@@H]6CNC[C@@H]65)cc(F)c4C3)sc2n1` (single isomer, unassigned) [Example 223], the concentration for half-maximal inhibition (IC50) fell in the range of 1 to 50 nM.

With `Cc1ccc2c(N)c(C(=O)N[C@H]3COc4cc(N5C[C@H](N)CC[C@H]5C(F)(F)F)ccc4C3)sc2n1` [Example 247, 3-amino-N-[(3R)-7-[(2S,5R)-5-amino-2-(trifluoromethyl)piperidin-1-yl]-3,4-dihydro-2H-1-benzopyran-3-yl]-6-methylthieno[2,3-b]pyridine-2-carboxamide], the IC50 is 1 to 50 nM.

For `Cc1ccc2c(N)c(C(=O)N[C@H]3COc4cc(N5CCC[C@@H]6CNC[C@@H]65)ccc4C3)sc2n1` [Example 242, N-[(3R)-7-[(4aR,7aR)-octahydro-1H-pyrrolo[3,4-b]pyridin-1-yl]-3 ,4-dihydro-2H-1-benzopyran-3-yl]-3-amino-6-methylthieno[2,3-b]pyridine-2-carboxamide], the concentration for half-maximal inhibition (IC50) was 1 to 50 nM.

For the compound `CO[C@H]1CN(c2nc3c(cc2F)C[C@@H](NC(=O)c2sc4nc(C)ccc4c2N)CC3)C[C@@H]1N` [Example 183, 3-amino-N-[(6S)-2-[(3S,4S)-3-amino-4-methoxypyrrolidin-1-yl]-3-fluoro-5,6,7,8-tetrahydroquinolin-6-yl]-6-methylthieno[2,3-b]pyridine-2-carboxamide], the IC50 was in the range of 50 to 200 nM.

In the case of `N#Cc1c(N2CC3CCC(C2)N3)cc(F)c2c1OC[C@H](NC(=O)c1cnc3c(c1)[C@@H]1C[C@@H]1CN3)C2` [Example 228, (6aS,7aR)-N-[(3R)-8-cyano-7-{3,8-diazabicyclo[3.2.1]octan-3-yl}-5-fluoro-3,4-dihydro-2H-1-benzopyran-3-yl]-5H,6H,6aH,7H,7aH-cyclopropa[c]1,8-naphthyridine-2-carboxamide], the IC50 fell in the range of 200 to 2000 nM.

Turning to `O=C(N[C@H]1CCc2cc(N3CC4CCC(C3)N4)cc(F)c2C1)c1cnc2c(c1)[C@@H]1C[C@@H]1CN2` [Example 191, (6aS,7aR)-N-[(2S)-6-{3,8-diazabicyclo[3.2.1]octan-3-yl}-8-fluoro-1,2,3,4-tetrahydronaphthalen-2-yl]-5H,6H,6aH,7H,7aH-cyclopropa[c]1,8-naphthyridine-2-carboxamide], the concentration for half-maximal inhibition (IC50) is greater than 2000 nM.

For `N#Cc1c(N2CC3CCC(C2)N3)cc(F)c2c1CC[C@H](NC(=O)c1cnc3c(c1)[C@H]1C[C@H]1CN3)C2` [Example 196, (6aR,7aS)-N-[(2S)-5-cyano-6-{3,8-diazabicyclo[3.2.1]octan-3-yl}-8-fluoro-1,2,3,4-tetrahydronaphthalen-2-yl]-5H,6H,6aH,7H,7aH-cyclopropa[c]1,8-naphthyridine-2-carboxamide], the concentration for half-maximal inhibition (IC50) is greater than 2000 nM.

As for `Cc1ccc2c(N)c(C(=O)N[C@H]3COc4cc(N5CCC[C@H]6CNC[C@H]65)ccc4C3)sc2n1` [Example 243, N-[(3R)-7-[(4aS,7aS)-octahydro-1H-pyrrolo[3,4-b]pyridin-1-yl]-3,4-dihydro-2H-1-benzopyran-3-yl]-3-amino-6-methylthieno[2,3-b]pyridine-2-carboxamide], the IC50 lay in the range of 1 to 50 nM.

With `CCO[C@H]1CN(c2ccc3c(n2)CC[C@H](NC(=O)c2sc4nc(C)ccc4c2N)C3)C[C@H]1N` [Example 255, 3-amino-N-[(6S)-2-[(3R,4S)-3-amino-4-ethoxypyrrolidin-1-yl]-5,6,7,8-tetrahydroquinolin-6-yl]-6-methylthieno[2,3-b]pyridine-2-carboxamide], the half-inhibitory concentration (IC50) was 50 to 200 nM.

Take `N#Cc1c(N2CC3CCC(C2)N3)cc(F)c2c1CC[C@@H](NC(=O)c1cnc3c(c1)[C@H]1C[C@H]1CN3)C2` [Example 198, (6aR,7aS)-N-[(2R)-5-cyano-6-{3,8-diazabicyclo[3.2.1]octan-3-yl}-8-fluoro-1,2,3,4-tetrahydronaphthalen-2-yl]-5H,6H,6aH,7H,7aH-cyclopropa[c]1,8-naphthyridine-2-carboxamide]: the IC50 was 200 to 2000 nM.

Turning to `CO[C@H]1CN(c2ccc3c(c2)CC[C@H](NC(=O)c2cnc4c(c2)C2CC2CN4)C3)C[C@@H]1N` (stereo partly drawn) [Example 188, N-[(2S)-6-[(3S,4S)-3-amino-4-methoxypyrrolidin-1-yl]-1,2,3,4-tetrahydronaphthalen-2-yl]-5H,6H,6aH,7H,7aH-cyclopropa[c]1,8-naphthyridine-2-carboxamide], the 50% inhibitory concentration (IC50) was in the range of 200 to 2000 nM.

With `Cc1ccc2c(N)c(C(=O)N[C@H]3COc4cc(N5CC[C@@H]6CC[C@H](N)C[C@@H]65)ccc4C3)sc2n1` [Example 234, N-[(3R)-7-[(3aS,6S,7aS)-6-amino-octahydro-1H-indol-1-yl]-3,4-dihydro-2H-1-benzopyran-3-yl]-3-amino-6-methylthieno[2,3-b]pyridine-2-carboxamide], the half-inhibitory concentration (IC50) fell in the range of 1 to 50 nM.

For the compound `Cc1ccc2c(N)c(C(=O)N[C@H]3COc4cc(N5CC6CCC[C@@]6(N)C5)ccc4C3)sc2n1` (stereo partly drawn) [Example 248, N-[(3R)-7-[(3aS)-3a-amino-octahydrocyclopenta[c]pyrrol-2-yl]-3,4-dihydro-2H-1-benzopyran-3-yl]-3-amino-6-methylthieno[2,3-b]pyridine-2-carboxamide], the IC50 is 1 to 50 nM.

For `Cc1cc(C)c2c(N)c(C(=O)N[C@H]3CCc4nc(N5CC[C@H]6CNC[C@H]65)ccc4C3)sc2n1` [Example 218, N-[(6S)-2-[(3aS 6aS)-octahydropyrrolo[2,3-c]pyrrol-1-yl]-5,6,7,8-tetrahydroquinolin-6-yl]-3-amino-4,6-dimethylthieno[2,3-b]pyridine-2-carboxamide], the IC50 fell in the range of 50 to 200 nM.

For `Cc1ccc2c(N)c(C(=O)N[C@H]3COc4cc(N5C[C@@H](N)C(C)(C)C5)ccc4C3)sc2n1` [Example 215, 3-amino-N-[(3R)-7-[(4S)-4-amino-3,3-dimethylpyrrolidin-1-yl]-3,4-dihydro-2H-1-benzopyran-3-yl]-6-methylthieno[2,3-b]pyridine-2-carboxamide], the IC50 is 1 to 50 nM.

Take `Cc1ccc2c(N)c(C(=O)N[C@H]3CCc4nc(N5CC[C@@H]6CNC[C@@H]65)ccc4C3)sc2n1` [Example 217, N-[(6S)-2-[(3aR,6aR)-octahydropyrrolo[2,3-c]pyrrol-1-yl]-5,6,7,8-tetrahydroquinolin-6-yl]-3-amino-6-methylthieno[2,3-b]pyridine-2-carboxamide]: the IC50 lay in the range of 1 to 50 nM.

As to `CO[C@H]1CN(c2ccc3c(c2)CC[C@H](NC(=O)c2cnc4c(c2)[C@@H]2C[C@@H]2CN4)C3)C[C@@H]1N` [Example 189, (6aS,7aR)-N-[(2S)-6-[(3S,4S)-3-amino-4-methoxypyrrolidin-1-yl]-1,2,3,4-tetrahydronaphthalen-2-yl]-5H,6H,6aH,7H,7aH-cyclopropa[c]1,8-naphthyridine-2-carboxamide], the IC50 was in the range of 200 to 2000 nM.

In the case of `Cc1ccc2c(N)c(C(=O)N[C@H]3COc4cc(N5C[C@H]6NCCC(F)(F)[C@H]6C5)ccc4C3)sc2n1` [Example 238, N-[(3R)-7-[(4aS,7aS)-4,4-difluoro-octahydro-1H-pyrrolo[3,4-b]pyridin-6-yl]-3,4-dihydro-2H-1-benzopyran-3-yl]-3-amino-6-methylthieno[2,3-b]pyridine-2-carboxamide], the IC50 lay within 1 to 50 nM.

Regarding `Cc1ccc2c(N)c(C(=O)N[C@H]3COc4cc(N5C[C@H](N)C6(COC6)C5)ccc4C3)sc2n1` [Example 258, 3-amino-N-[(3R)-7-[(8R)-8-amino-2-oxa-6-azaspiro[3.4]octan-6-yl]-3,4-dihydro-2H-1-benzopyran-3-yl]-6-methylthieno[2,3-b]pyridine-2-carboxamide], the half-maximal inhibitory concentration (IC50) was in the range of 1 to 50 nM.

`Cc1ccc2c(N)c(C(=O)N[C@@H]3Cc4ccc(N5CCNCC5)nc4[C@H](C)C3)sc2n1` [Example 207, 3-amino-6-methyl-N-[(6S,8R)-8-methyl-2-(piperazin-1-yl)-5,6,7,8-tetrahydroquinolin-6-yl]thieno[2,3-b]pyridine-2-carboxamide]: the IC50 fell in the range of 200 to 2000 nM.

On to `Cc1ccc2c(N)c(C(=O)N[C@H]3COc4cc(N5CC6CCC[C@]6(N)C5)ccc4C3)sc2n1` (stereo partly drawn) [Example 249, N-[(3R)-7-[(3aR)-3a-amino-octahydrocyclopenta[c]pyrrol-2-yl]-3,4-dihydro-2H-1-benzopyran-3-yl]-3-amino-6-methylthieno[2,3-b]pyridine-2-carboxamide], for which the concentration for half-maximal inhibition (IC50) is 1 to 50 nM.

These data come from patent US11524966B1 (Valo Early Discovery, Inc., priority 2017, dated 2022).
